# Where two headings read alike, the source gives them in different places.
# Experiments:
# [1] = target: Beta Secretase enzyme (BACE) (Homo sapiens, UniProt P56817); assay: In vitro enzymatic BACE FRET (fluorescence resonance energy transfer) assay; format: biochemical; conditions: average IC50, enzyme assay; read-out: BACE 1 FRET assay
# In short: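 Acetate buffer (0.05 M, pH 4.2), 10% DMSO final, 100 uM nonionic detergent genapol. Substrate addition (50 nM FRET peptide) initiates; one-hour incubation; Tris raises pH to neutrality before fluorescence measurement.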
# [2] = system: Aβ40 in conditioned medium of cells stably expressing Amyloid Precursor Protein (APP); assay: In vitro BACE cell-based assay (Aβ40 in conditioned medium, sandwich ELISA); conditions: read-out: HEK cell assay
# In short: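 Quantification relied on pAb40/6E10 sandwich ELISA with Europium fluorescence counts, and IC50 was fitted versus concentration.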
# [3] = Homo sapiens, HEK293, average IC50, HEK cells
# [4] = Homo sapiens, HEK293, average IC50
# Beta Secretase enzyme (BACE), sequence (P56817 46-501, species assumed): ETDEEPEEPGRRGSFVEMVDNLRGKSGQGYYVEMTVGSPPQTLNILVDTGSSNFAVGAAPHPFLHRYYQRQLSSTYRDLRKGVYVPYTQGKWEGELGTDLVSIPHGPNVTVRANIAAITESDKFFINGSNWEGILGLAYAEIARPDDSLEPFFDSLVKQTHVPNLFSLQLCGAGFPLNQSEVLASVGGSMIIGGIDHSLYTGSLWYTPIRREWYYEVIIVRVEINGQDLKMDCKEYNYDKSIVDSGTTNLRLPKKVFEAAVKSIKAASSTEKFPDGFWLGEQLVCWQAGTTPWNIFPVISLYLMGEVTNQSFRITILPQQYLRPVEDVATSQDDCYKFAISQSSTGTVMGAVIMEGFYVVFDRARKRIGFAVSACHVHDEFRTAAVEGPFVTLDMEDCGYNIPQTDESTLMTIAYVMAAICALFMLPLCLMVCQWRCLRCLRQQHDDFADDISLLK
IC50 [1],"IC50 [2, 3]","IC50 [2, 4]","IC50 ([2]; average IC50, HEK cells)",Compound
8.9 nM,146 nM,–,–,"COc1cc(F)c2c(c1)[C@]1(COC(N)=N1)c1cc(-c3cncnc3)c(F)cc1O2 [Example 556, (4S)-3′,5′-difluoro-7′-methoxy-2′-(5-pyrimidinyl)spiro[1,3-oxazole-4,9′-xanthen]-2-amine]"
81.7 nM,367 nM,–,–,"COc1ncc(-c2ccc3c(c2)[C@@]2(COC(N)=N2)c2cc(N4CCC(F)(F)C4)ncc2O3)cn1 [Example 415, (5S)-3-(3,3-difluoro-1-pyrrolidinyl)-7-(2-methoxy-5-pyrimidinyl)spiro[chromeno[2,3-c]pyridine-5,4′-[1,3]oxazol]-2′-amine]"
1.1 nM,–,12 nM,–,"CC1(C#Cc2cnc3c(c2)[C@]2(COC(N)=N2)c2cc(-c4cnccc4F)ccc2O3)COC1 [Example 104, (S)-7-(4-fluoropyridin-3-yl)-3-((3-methyloxetan-3-yl)ethynyl)-5′H-spiro[chromeno[2,3-b]pyridine-5,4′-oxazol]-2′-amine]"
16.2 nM,208 nM,–,–,"NC1=N[C@@]2(CS1)c1cc(-c3cccnc3F)ccc1Oc1cnc([C@H]3CCCOC3)cc12 [Example 932, (5S)-7-(2-fluoro-3-pyridinyl)-3-((3R)-tetrahydro-2H-pyran-3-yl)spiro[chromeno[2,3-c]pyridine-5,4′-[1,3]thiazol]-2′-amine]"
2.5 nM,9.4 nM,–,–,"CC1(C)CCN(c2cnc3c(c2)[C@]2(COC(N)=N2)c2cc(-c4cccnc4F)ccc2O3)CC1 [Example 480, (5S)-3-(4,4-dimethyl-1-piperidinyl)-7-(2-fluoro-3-pyridinyl)spiro[chromeno[2,3-b]pyridine-5,4′-[1,3]oxazol]-2′-amine]"
7240 nM,10000 nM,–,–,"COc1cc(F)c2c(c1)C1(COC(N)=N1)c1cc(Br)c(F)cc1O2 (stereo not drawn) [Example 521, 2′-bromo-3′,5′-difluoro-7′-methoxyspiro[1,3-oxazole-4,9′-xanthen]-2-amine]"
391 nM,–,1840 nM,–,"CC1(C#Cc2cnc3c(c2)[C@@]2(COC(N)=N2)c2c(ccc(-c4ccc(F)nc4)c2F)O3)COC1 [Example 343, (5S)-6-fluoro-7-(6-fluoro-3-pyridinyl)-3-((3-methyl-3-oxetanyl)ethynyl)spiro[chromeno[2,3-b]pyridine-5,4′-[1,3]oxazol]-2′-amine]"
5.1 nM,–,30 nM,–,"NC1=N[C@@]2(CO1)c1cc(-c3cccnc3)ccc1Oc1c(F)cc(N3CCCC3=O)cc12 [Example 792, 1-((4S)-2-amino-4′-fluoro-7′-(3-pyridinyl)spiro[1,3-oxazole-4,9′-xanthen]-2′-yl)-2-pyrrolidinone]"
0.5 nM,5.3 nM,–,–,"NC1=N[C@@]2(CO1)c1cc(-c3cccnc3)ccc1Oc1c2cc(-c2cccnc2)nc1F [Example 494, (5S)-1-fluoro-3,7-di-3-pyridinylspiro[chromeno[2,3-c]pyridine-5,4′-[1,3]oxazol]-2′-amine]"
1050 nM,–,2130 nM,–,"Cn1cc(-c2cnc3c(c2)[C@@]2(COC(N)=N2)c2c(ccc(-c4cccnc4F)c2F)O3)cn1 [Example 357, (5S)-6-fluoro-7-(2-fluoro-3-pyridinyl)-3-(1-methyl-1H-pyrazol-4-yl)spiro[chromeno[2,3-b]pyridine-5,4′-[1,3]oxazol]-2′-amine]"
0.7 nM,–,2.4 nM,–,"CC1(COc2cc(F)c3c(c2)[C@]2(COC(N)=N2)c2cc(-c4cncc(Cl)c4)ccc2O3)COC1 [Example 206, (4S)-7′-(5-chloro-3-pyridinyl)-4′-fluoro-2′-((3-methyl-3-oxetanyl)methoxy)spiro[1,3-oxazole-4,9′-xanthen]-2-amine]"
5.6 nM,–,–,31 nM,"CC(C)(C)COc1ccc2c(c1)[C@@]1(COC(N)=N1)c1cc(C3=CCOC(C)(C)C3)cnc1O2 [Example 507, (5S)-3-(2,2-dimethyl-3,6-dihydro-2H-pyran-4-yl)-7-(2,2-dimethylpropoxy)spiro[chromeno[2,3-b]pyridine-5,4′-[1,3]oxazol]-2′-amine]"
1100 nM,4580 nM,–,–,"NC1=N[C@@]2(CO1)c1cc(O)ccc1Oc1c(F)cc(-n3cccn3)cc12 [Example 665, (4S)-2-amino-5′-fluoro-7′-(1H-pyrazol-1-yl)spiro[1,3-oxazole-4,9′-xanthen]-2′-ol]"
1 nM,–,57 nM,–,"NC1=N[C@@]2(CO1)c1cc(-c3cccnc3F)ccc1Oc1c(F)cc(OCCF)cc12 [Example 1043, (4S)-4′-fluoro-2′-(2-fluoroethoxy)-7′-(2-fluoro-3-pyridinyl)spiro[1,3-oxazole-4,9′-xanthen]-2-amine]"
202 nM,1920 nM,–,–,"CC1(COc2ccc3c(c2)[C@@]2(COC(N)=N2)c2cc(Br)cc(F)c2O3)COC1 [Example 437, (4S)-2′-bromo-4′-fluoro-7′-((3-methyl-3-oxetanyl)methoxy)spiro[1,3-oxazole-4,9′-xanthen]-2-amine]"
1.9 nM,5.4 nM,–,–,"Cc1cncc(-c2ccc3c(c2)[C@@]2(COC(N)=N2)c2cc(C4=CCOCC4)cc(F)c2O3)c1 [Example 446, (4S)-2′-(3,6-dihydro-2H-pyran-4-yl)-4′-fluoro-7′-(5-methyl-3-pyridinyl)spiro[1,3-oxazole-4,9′-xanthen]-2-amine]"
15.8 nM,–,532 nM,–,"NC1=N[C@@]2(CO1)c1cc(-c3ccccc3)ccc1Oc1cnc(-c3ccccc3)cc12 [Example 142, (5S)-3,7-diphenylspiro[chromeno[2,3-c]pyridine-5,4′-[1,3]oxazol]-2′-amine]"
6.8 nM,–,43 nM,–,"NC1=N[C@@]2(CS1)c1cc(-c3cccnc3F)ccc1Oc1ncc(C3CCOCC3)cc12 [Example 729, (5S)-7-(2-fluoro-3-pyridinyl)-3-(tetrahydro-2H-pyran-4-yl)spiro[chromeno[2,3-b]pyridine-5,4′-[1,3]thiazol]-2′-amine]"
0.8 nM,–,8.1 nM,–,"COc1ccc(-c2cc(F)c3c(c2)[C@]2(COC(N)=N2)c2cc(-c4cncc(F)c4)ccc2O3)nn1 [Example 290, (4S)-4′-fluoro-7′-(5-fluoro-3-pyridinyl)-2′-(6-methoxy-3-pyridazinyl)spiro[1,3-oxazole-4,9′-xanthen]-2-amine]"
80.1 nM,–,361 nM,–,"Cc1cc(-c2cc3c(cn2)Oc2ccc(-c4ccccc4)cc2[C@@]32COC(N)=N2)on1 [Example 366, (5S)-3-(3-methyl-5-isoxazolyl)-7-phenylspiro[chromeno[2,3-c]pyridine-5,4′-[1,3]oxazol]-2′-amine]"
20 nM,38.6 nM,–,–,"Cn1cc(-c2cc(F)c3c(c2)[C@]2(COC(N)=N2)c2cc(OCC4(C)COC4)ccc2O3)cn1 [Example 444, (4S)-4′-fluoro-7′-((3-methyl-3-oxetanyl)methoxy)-2′-(1-methyl-1H-pyrazol-4-yl)spiro[1,3-oxazole-4,9′-xanthen]-2-amine]"
19.7 nM,–,61.6 nM,–,"CC1(COc2cc3c(cc2F)Oc2ccc(-c4ccc(F)nc4)cc2[C@@]32COC(N)=N2)COC1 [Example 326, (4S)-3′-fluoro-7′-(6-fluoro-3-pyridinyl)-2′-((3-methyl-3-oxetanyl)methoxy)spiro[1,3-oxazole-4,9′-xanthen]-2-amine]"
4 nM,84 nM,–,–,"CC(C)(C)/C=C/c1ccc2c(c1)[C@]1(COC(N)=N1)c1cc(-c3cncnc3)ncc1O2 [Example 384, (5R)-7-((1E)-3,3-dimethyl-1-buten-1-yl)-3-(5-pyrimidinyl)spiro[chromeno[2,3-c]pyridine-5,4′-[1,3]oxazol]-2′-amine]"
1.9 nM,–,15.8 nM,–,"NC1=N[C@@]2(CO1)c1cc(-c3cccnc3F)ccc1Oc1c(F)cc([C@@H]3CCCOC3)cc12 [Example 286, (4S)-4′-fluoro-7′-(2-fluoro-3-pyridinyl)-2′-((3S)-tetrahydro-2H-pyran-3-yl)spiro[1,3-oxazole-4,9′-xanthen]-2-amine]"
30.2 nM,–,4100 nM,–,"CC#Cc1cncc(-c2ccc3c(c2)[C@@]2(COC(N)=N2)c2cc(Cl)nc(OC)c2O3)c1 [Example 829, (5S)-3-chloro-1-methoxy-7-(5-(1-propyn-1-yl)-3-pyridinyl)spiro[chromeno[2,3-c]pyridine-5,4′-[1,3]oxazol]-2′-amine]"
7.5 nM,–,18 nM,–,"NC1=N[C@]2(CO1)c1cc(C3=CCOCC3)ccc1Oc1ccc(-c3cncc(F)c3)cc12 [Example 193, (4R)-2′-(3,6-dihydro-2H-pyran-4-yl)-7′-(5-fluoro-3-pyridinyl)spiro[1,3-oxazole-4,9′-xanthen]-2-amine]"
175 nM,6360 nM,–,–,"NC1=N[C@]2(CO1)c1cc(-c3cccnc3F)c(F)cc1Oc1ncc(-c3ccc(F)nc3)cc12 [Example 897, (5R)-8-fluoro-7-(2-fluoro-3-pyridinyl)-3-(6-fluoro-3-pyridinyl)spiro[chromeno[2,3-b]pyridine-5,4′-[1,3]oxazol]-2′-amine]"
5.2 nM,–,31.7 nM,–,"COC(C)(C)COc1cnc2c(c1)[C@]1(COC(N)=N1)c1cc(-c3cccc(F)c3F)ccc1O2 [Example 315, (5S)-7-(2,3-difluorophenyl)-3-(2-methoxy-2-methylpropoxy)spiro[chromeno[2,3-b]pyridine-5,4′-[1,3]oxazol]-2′-amine]"
10.5 nM,237 nM,–,–,"CN(C)c1cc2c(cn1)Oc1ccc(-c3cccnc3F)cc1C21CSC(N)=N1 (stereo not drawn) [Example 693, 7-(2-fluoro-3-pyridinyl)-N~3~,N~3~-dimethylspiro[chromeno[2,3-c]pyridine-5,4′-[1,3]thiazole]-2′,3-diamine]"
92.6 nM,–,958 nM,–,"CC#Cc1cncc(-c2ccc3c(c2)[C@@]2(COC(N)=N2)c2cc(OC)cc(F)c2O3)n1 [Example 723, (4S)-4′-fluoro-2′-methoxy-7′-(6-(1-propyn-1-yl)-2-pyrazinyl)spiro[1,3-oxazole-4,9′-xanthen]-2-amine]"

# Reference: patent US8883782B2, “Spiro-tetracyclic ring compounds as beta-secretase modulators and methods of use” (Amgen Inc., priority 2010, dated 2014)
